Laboratory results: US7692012B2, “Vanadium compounds as inhibitors of phosphatases” (Imperial College Innovations Limited, priority 2003, dated 2010)

Legend:
Type in all cases: cell-based
NIH3T3 cells = test: Phalloidin staining (actin re-arrangement, morphology); conditions: 0.1 μM, 6 h and 24 h
Procedure: In order to monitor morphological changes NIH3T3 cells were grown on 8-well chamber slides and incubated with concentrations of bpV(pic) and bpV(phen) between 0.1 and 10 μM for 6 h and 24 h, respectively. Fibroblasts were fixed with 4% para-formaldehyde (PFA), permeabilised with 0.2% Triton and blocked with 10% NCS (newborn calf serum). To stain actin filaments cells were incubated with TRITC-phalloidin (Sigma) (1:1000) for 1 h. Finally, nuclei were DAPI (Sigma) stained and mounted. Morphological analyses were assessed on a microscope using filters for TRITC and DAPI and pictures were captured using a camera.

[1] = tested on: PKB phosphorylation (pSer473) in NIH3T3 cells; test: PKB assay: activation of insulin signalling pathway (insulin mimetic property), NIH3T3; conditions: NIH3T3, 1 μM, 15 min, no insulin
Procedure: NIH3T3 cells (passage 5-20) were grown in 10% NCS D-MEM (GIBCO BRL) in 6-well plates at 37 C and 5% CO2. Starvation of the cells was carried out over 72 h in D-MEM containing 0.5% NCS. Prior use medium was changed to 0% D-MEM. UM-UC-3 cells which is a PTEN^− bladder tumour cell line (NO 195, No 196) were grown in 10% MEM (GIBCO BRL), starved with 0.5% MEM also for three days and finally incubated with serum free MEM.
Cells were washed once with PBS and lysed using 80 μl SDS-PAGE buffer (250 mM Tris pH 6.8, 20% glycerol, 4% SDS, 0.01% bromphenol blue, 50 mM mercaptoethanol). Samples were boiled for 15 min and stored at −20 C until analysis on Western Blots as described in the last paragraph.
(§1) All cell lysate samples were loaded on 10% SDS-PAGE and transferred to PVDF membranes for PKB analysis and nitrocellulose for phospho tyrosine detection. For PKB Western Blots membranes were blocked for 1 h with 5% milk powder in TBST followed by an incubation with anti Mass PKB antibody (1:1000) or anti phospho-PKB (Ser473) antibody (1:1000) in TBST for 2 h. Finally, membranes were exposed to a horseradish peroxidase-conjugated secondary antiserum (BIORAD) (1:1000) in 5% milk powder solution for 1 h. The Western Blots were developed with ECL™ solution (Amersham). In order to detect phosphorylated tyrosine residues nitrocellulose membranes were blocked for 1 h with 2.5% milk powder, first incubated with a specific anti phosphotyrosine antibody (4G10) (1:3000) for 1 h, and finally with horseradish peroxidase-conjugated secondary anti mouse antiserum. All PKB and Phospho-Tyrosine experiments were accomplished in three independent experiments and all membranes were re-probed using a specific tubulin antibody (1:1000). Density analysis of bands took place using the public domain NIH Image V1.62 program (developed at the U.S. National Institutes of Health and available on the Internet at http://rsb.info.nih.gov/nih-image/).

[2] = tested on: PKB phosphorylation (Ser473) in NIH3T3 cells; test: PKB assay in the presence of PI3K inhibitor Ly294002 and mTOR inhibitor rapamycin
Procedure: In order to study the influence of PI3K and mTOR on the bpV-dependent insulin mimetic feature we treated NIH3T3 cells with 10 μM LY294002 (Promega) and 50 nM rapamycin (Calbiochem) for 20 min and 30 min, respectively, followed by an incubation with 10 μM or 1 μM bpv(pic) for 15 min. Cell lysates were analysed on PKB Western Blots.
as §1

Substance: potassium bisperoxo (piconlinate) oxovanadate [bpV(pic)]
- cellular morphology (actin staining) (NIH3T3 cells): remained unchanged
- phosphorylated PKB signal [1]: weak signal
- phosphorylation of Ser473 of PKB ([2]; 1 μM bpV(pic) after pre-incubation with 50 nM rapamycin): provoked phosphorylated Ser473
- phosphorylation of Ser473 of PKB ([2]; 1 μM bpV(pic) alone): no signal was visible
- phosphorylation of Ser473 of PKB ([2]; 10 μM bpV(pic) after pre-incubation with 10 μM Ly294002): reduced phosphorylation rate
- phosphorylation of Ser473 of PKB ([2]; 10 μM bpV(pic) alone): high degree of phosphorylation
